Measurements from ChEMBL document CHEMBL1148857, “In vitro and in vivo profile of 5-[(4'-trifluoromethyl-biphenyl-2-carbonyl)-amino]-1H-indole-2-carboxylic acid benzylmethyl carbamoylamide (dirlotapide), a novel potent MTP inhibitor for obesity” (Bioorg Med Chem Lett, 2007).
Active and inactive are the calls of the source. The rule behind the calls is not given here.

Experiments:
[1] = Inhibition of MTP assessed as inhibition of apoB secretion from canine hepatocytes; format: cell-based; details: Canis lupus familiaris, Hepatocyte
[2] = target: Histamine H1 receptor (Homo sapiens) (UniProt P35367); experiment: Inhibition of histamine H1 receptor at 1 uM
Sequence of Histamine H1 receptor (Homo sapiens) (P35367 whole entry): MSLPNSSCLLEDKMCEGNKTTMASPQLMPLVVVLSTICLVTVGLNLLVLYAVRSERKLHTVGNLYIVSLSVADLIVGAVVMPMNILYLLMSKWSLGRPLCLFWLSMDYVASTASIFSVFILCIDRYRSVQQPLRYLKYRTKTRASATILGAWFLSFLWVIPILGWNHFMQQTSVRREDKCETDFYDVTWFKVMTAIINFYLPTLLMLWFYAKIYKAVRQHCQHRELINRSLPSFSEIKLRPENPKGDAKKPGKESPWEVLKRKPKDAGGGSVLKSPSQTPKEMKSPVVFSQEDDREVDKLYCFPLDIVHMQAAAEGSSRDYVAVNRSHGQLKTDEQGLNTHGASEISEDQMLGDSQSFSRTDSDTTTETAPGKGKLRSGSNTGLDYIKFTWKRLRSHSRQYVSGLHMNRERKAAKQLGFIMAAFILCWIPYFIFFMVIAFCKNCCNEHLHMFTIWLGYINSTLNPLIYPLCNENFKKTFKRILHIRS

[3] = Permeability from apical to basolateral side of the Caco-2 cell membrane at 1 uM; format: ADME, cell-based; details: human
[4] = target: Adenosine receptor A2a (Homo sapiens) (UniProt P29274); experiment: Inhibition of adenosine A2a receptor at 1 uM
Sequence of Adenosine receptor A2a (Homo sapiens) (P29274 whole entry): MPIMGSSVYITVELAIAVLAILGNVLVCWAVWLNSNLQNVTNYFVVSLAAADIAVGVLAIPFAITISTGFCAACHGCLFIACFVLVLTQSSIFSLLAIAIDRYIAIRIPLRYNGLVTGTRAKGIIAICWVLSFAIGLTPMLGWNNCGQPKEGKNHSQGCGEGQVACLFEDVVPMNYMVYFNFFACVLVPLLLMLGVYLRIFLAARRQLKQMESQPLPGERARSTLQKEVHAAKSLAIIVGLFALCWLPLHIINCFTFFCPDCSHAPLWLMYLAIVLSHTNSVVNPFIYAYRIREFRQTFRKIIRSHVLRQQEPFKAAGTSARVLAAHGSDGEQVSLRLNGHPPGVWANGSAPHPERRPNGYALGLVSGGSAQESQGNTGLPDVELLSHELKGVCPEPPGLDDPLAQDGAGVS

[5] = target: Adenosine receptor A3 (Homo sapiens) (UniProt P0DMS8); experiment: Inhibition of adenosine A3 receptor at 1 uM
Sequence of Adenosine receptor A3 (Homo sapiens) (P0DMS8 whole entry): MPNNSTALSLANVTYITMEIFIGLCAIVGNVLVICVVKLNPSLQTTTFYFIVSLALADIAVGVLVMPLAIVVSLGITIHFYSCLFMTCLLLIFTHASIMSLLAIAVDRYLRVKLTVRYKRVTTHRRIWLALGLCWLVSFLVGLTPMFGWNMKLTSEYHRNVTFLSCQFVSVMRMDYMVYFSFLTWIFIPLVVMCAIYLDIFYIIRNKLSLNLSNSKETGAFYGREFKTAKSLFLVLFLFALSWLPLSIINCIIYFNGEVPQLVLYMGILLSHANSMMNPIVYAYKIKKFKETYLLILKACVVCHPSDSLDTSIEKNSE

[6] = target: Adrenergic receptor alpha-2 (Homo sapiens) (UniProt P08913+P18825+P18089); experiment: Inhibition of adrenergic a2 receptor at 1 uM; format: protein assay
[7] = target: Beta-1 adrenergic receptor (Homo sapiens) (UniProt P08588); experiment: Inhibition of adrenergic b1 receptor at 1 uM
[8] = target: Beta-2 adrenergic receptor (Homo sapiens) (UniProt P07550); experiment: Inhibition of adrenergic b2 receptor at 1 uM
[9] = target: Type-1 angiotensin II receptor (Homo sapiens) (UniProt P30556); experiment: Inhibition of AT1 receptor at 1 uM
Sequence of Type-1 angiotensin II receptor (Homo sapiens) (P30556 whole entry): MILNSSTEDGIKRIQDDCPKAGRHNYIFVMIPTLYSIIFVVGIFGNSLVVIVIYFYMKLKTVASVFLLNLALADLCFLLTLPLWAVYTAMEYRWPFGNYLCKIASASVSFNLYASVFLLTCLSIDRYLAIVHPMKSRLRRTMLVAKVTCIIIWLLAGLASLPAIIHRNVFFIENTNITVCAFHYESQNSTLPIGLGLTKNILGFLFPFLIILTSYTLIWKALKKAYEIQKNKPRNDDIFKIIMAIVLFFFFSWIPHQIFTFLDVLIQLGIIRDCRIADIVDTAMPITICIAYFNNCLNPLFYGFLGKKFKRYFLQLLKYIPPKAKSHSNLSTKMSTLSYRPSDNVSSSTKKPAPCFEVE

[10] = target: D(2) dopamine receptor (Homo sapiens) (UniProt P14416); experiment: Inhibition of dopamine D2 receptor at 1 uM
Sequence of D(2) dopamine receptor (Homo sapiens) (P14416 whole entry): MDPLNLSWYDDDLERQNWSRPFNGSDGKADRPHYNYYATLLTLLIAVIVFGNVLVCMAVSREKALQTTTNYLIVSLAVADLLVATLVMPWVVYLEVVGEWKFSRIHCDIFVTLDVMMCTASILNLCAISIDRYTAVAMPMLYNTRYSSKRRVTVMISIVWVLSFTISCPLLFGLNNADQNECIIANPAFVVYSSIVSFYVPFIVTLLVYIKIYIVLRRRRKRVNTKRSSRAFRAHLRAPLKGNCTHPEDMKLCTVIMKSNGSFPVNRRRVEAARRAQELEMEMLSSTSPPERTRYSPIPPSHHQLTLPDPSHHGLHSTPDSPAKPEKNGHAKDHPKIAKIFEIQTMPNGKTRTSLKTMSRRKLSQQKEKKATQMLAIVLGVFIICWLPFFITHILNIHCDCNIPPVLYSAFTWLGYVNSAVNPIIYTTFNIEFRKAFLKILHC

[11] = target: D(4) dopamine receptor (Homo sapiens) (UniProt P21917); experiment: Inhibition of dopamine D4 receptor at 1 uM
Sequence of D(4) dopamine receptor (Homo sapiens) (P21917 whole entry): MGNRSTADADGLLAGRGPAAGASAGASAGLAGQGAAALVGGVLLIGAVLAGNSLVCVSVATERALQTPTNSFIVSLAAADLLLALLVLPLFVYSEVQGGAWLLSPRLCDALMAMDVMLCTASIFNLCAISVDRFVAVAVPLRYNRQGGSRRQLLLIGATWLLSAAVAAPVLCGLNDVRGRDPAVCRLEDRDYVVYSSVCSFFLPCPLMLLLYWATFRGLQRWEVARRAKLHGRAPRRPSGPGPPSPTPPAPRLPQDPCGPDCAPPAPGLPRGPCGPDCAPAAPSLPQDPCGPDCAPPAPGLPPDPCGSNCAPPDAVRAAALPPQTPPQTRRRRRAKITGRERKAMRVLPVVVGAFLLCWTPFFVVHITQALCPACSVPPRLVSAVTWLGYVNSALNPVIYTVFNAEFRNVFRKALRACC

Homo sapiens [12] = species on record: Homo sapiens; experiment: Inhibition of AMPA receptor at 1 uM
[13] = target: 5-hydroxytryptamine receptor 2C (Homo sapiens) (UniProt P28335); experiment: Inhibition of 5HT2C receptor at 1 uM
[14] = target: 5-hydroxytryptamine receptor 4 (Homo sapiens) (UniProt Q13639); experiment: Inhibition of 5HT4 receptor at 1 uM
Sequence of 5-hydroxytryptamine receptor 4 (Homo sapiens) (Q13639 whole entry): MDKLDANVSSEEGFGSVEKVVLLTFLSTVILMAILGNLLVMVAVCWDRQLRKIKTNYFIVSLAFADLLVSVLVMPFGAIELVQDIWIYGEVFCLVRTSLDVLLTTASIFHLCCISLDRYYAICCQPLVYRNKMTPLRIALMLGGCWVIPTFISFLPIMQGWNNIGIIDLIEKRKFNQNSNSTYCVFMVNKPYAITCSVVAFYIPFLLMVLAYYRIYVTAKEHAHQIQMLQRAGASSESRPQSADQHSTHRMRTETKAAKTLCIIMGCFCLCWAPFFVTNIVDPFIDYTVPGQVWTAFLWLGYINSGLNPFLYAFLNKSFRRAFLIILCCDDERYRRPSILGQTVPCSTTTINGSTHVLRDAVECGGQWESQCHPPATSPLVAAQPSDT

[15] = target: 5-hydroxytryptamine receptor 7 (Homo sapiens) (UniProt P34969); experiment: Inhibition of 5HT7 receptor at 1 uM
Sequence of 5-hydroxytryptamine receptor 7 (Homo sapiens) (P34969 whole entry): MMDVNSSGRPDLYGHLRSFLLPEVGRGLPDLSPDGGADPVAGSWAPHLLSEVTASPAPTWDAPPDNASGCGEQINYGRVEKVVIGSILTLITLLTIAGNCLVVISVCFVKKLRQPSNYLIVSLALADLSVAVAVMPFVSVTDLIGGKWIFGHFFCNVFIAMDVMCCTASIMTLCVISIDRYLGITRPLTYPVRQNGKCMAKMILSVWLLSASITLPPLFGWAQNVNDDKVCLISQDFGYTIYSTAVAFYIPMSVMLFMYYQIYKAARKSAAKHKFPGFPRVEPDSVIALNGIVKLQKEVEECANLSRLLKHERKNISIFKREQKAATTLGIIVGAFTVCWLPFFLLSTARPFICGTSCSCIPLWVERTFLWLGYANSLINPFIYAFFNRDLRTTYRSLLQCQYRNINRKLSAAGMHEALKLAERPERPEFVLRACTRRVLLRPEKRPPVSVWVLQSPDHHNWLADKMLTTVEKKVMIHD

[16] = target: Muscarinic acetylcholine receptor M3 (Homo sapiens) (UniProt P20309); experiment: Inhibition of muscarinic M3 receptor at 1 uM
Sequence of Muscarinic acetylcholine receptor M3 (Homo sapiens) (P20309 whole entry, looked up): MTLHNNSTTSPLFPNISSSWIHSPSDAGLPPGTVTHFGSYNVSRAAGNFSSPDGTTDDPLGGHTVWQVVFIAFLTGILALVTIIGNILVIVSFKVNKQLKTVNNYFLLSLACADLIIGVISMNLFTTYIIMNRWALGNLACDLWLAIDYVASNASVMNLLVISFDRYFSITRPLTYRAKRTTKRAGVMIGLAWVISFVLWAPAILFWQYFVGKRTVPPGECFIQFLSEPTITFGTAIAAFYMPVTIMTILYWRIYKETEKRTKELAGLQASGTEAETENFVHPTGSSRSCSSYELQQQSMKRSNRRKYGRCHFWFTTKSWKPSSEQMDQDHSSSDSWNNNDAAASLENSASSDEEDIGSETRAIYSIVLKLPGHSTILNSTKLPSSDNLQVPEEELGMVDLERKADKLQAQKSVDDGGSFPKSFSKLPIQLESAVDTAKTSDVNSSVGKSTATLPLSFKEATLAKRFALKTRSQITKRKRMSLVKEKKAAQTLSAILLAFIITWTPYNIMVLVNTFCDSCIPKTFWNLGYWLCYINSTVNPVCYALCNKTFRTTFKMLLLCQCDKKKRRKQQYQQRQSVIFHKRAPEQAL

[17] = target: Kappa-type opioid receptor (Homo sapiens) (UniProt P41145); experiment: Inhibition of kappa opioid receptor at 1 uM
Sequence of Kappa-type opioid receptor (Homo sapiens) (P41145 whole entry): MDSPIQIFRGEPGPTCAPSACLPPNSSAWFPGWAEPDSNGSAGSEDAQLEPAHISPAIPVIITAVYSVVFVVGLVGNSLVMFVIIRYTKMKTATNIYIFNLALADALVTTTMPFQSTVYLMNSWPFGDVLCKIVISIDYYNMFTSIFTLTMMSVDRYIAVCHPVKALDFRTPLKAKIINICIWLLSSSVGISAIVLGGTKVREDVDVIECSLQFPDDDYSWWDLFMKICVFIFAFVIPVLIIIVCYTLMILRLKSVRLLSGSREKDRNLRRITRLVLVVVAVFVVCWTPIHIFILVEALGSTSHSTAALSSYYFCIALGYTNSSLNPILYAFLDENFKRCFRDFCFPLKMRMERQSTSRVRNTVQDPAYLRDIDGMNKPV

[18] = target: Mu-type opioid receptor (Homo sapiens) (UniProt P35372); experiment: Inhibition of mu opioid receptor at 1 uM
[19] = target: Voltage-gated L-type calcium channel (Homo sapiens, UniProt Q13936+Q13698+Q01668+O60840); experiment: Inhibition of L-type calcium channel at 1 uM
Homo sapiens [20] = species on record: Homo sapiens; experiment: Inhibition of IKr potassium channel at 1 uM
[21] = Intrinsic clearance in dog microsomes; format: ADME, Canis lupus familiaris, Liver, Microsome
CYP3A4 = experiment: Metabolic stability in human liver microsome at 0.5 uM in presence of 1 uM CYP3A4 inhibitor ketoconazole; format: ADME; details: liver microsomes, with 1 uM ketoconazole (CYP3A4 inhibitor)
CYP2C9 = experiment: Metabolic stability in human liver microsome at 0.5 uM in presence of 5 uM CYP2C9 inhibitor sulfaphenazole; format: ADME; details: liver microsomes, with 5 uM sulfaphenazole (CYP2C9 inhibitor)
Plasma [22] = experiment: Percentage unbound ligand in rat blood at 1 uM; format: ADME, cell-free
Plasma [23] = experiment: Percentage unbound ligand in dog blood at 0.2 uM; format: ADME, cell-free, Canis lupus familiaris
[24] = Ratio of drug level in blood to plasma in rat; format: ADME, cell-free; details: blood and plasma, read-out: BPR
[25] = Ratio of drug level in blood to plasma in human; format: ADME, cell-free; details: blood and plasma, read-out: BPR
Mus musculus = species on record: Mus musculus; experiment: Inhibition of intestinal MTP in mouse assessed as inhibition of intestinal fat absorption; format: functional
[26] = Plasma clearance in rat at 0.3 mg/kg, iv; format: ADME, organism-based; set-up: dose 0.3 mg/kg, route intravenous
[27] = Plasma clearance in Beagle dog at 1 mg/kg, iv; format: ADME, organism-based, Canis lupus familiaris; set-up: dose 1 mg/kg, route intravenous
[28] = Plasma clearance in portal cannulated Beagle dog at 1 mg/kg, iv; format: ADME, organism-based, Canis lupus familiaris; set-up: dose 1 mg/kg, route intravenous
[29] = Volume of distribution at steady state in rat at 0.3 mg/kg, iv; format: ADME, organism-based; set-up: dose 0.3 mg/kg, route intravenous; details: in vivo, read-out: Vdss
[30] = Volume of distribution at steady state in rat at 1 mg/kg, iv; format: ADME, organism-based; set-up: dose 1 mg/kg, route intravenous; details: in vivo, read-out: Vdss
[31] = Volume of distribution at steady state in monkey at 0.5 mg/kg, iv; format: ADME, organism-based, Macaca mulatta; set-up: dose 0.5 mg/kg, route intravenous; details: rhesus monkey, in vivo, read-out: Vdss
[32] = Half life in rat at 0.3 mg/kg, iv; format: ADME, organism-based; set-up: dose 0.3 mg/kg, route intravenous; details: in vivo
[33] = Half life in rat at 1 mg/kg, iv; format: ADME, organism-based; set-up: dose 1 mg/kg, route intravenous; details: in vivo
[34] = Half life in Beagle dog at 0.5 mg/kg, iv; format: ADME, organism-based, Canis lupus familiaris; set-up: dose 0.5 mg/kg, route intravenous; details: in vivo
[35] = Half life in monkey at 0.5 mg/kg, iv; format: ADME, organism-based, Macaca mulatta; set-up: dose 0.5 mg/kg, route intravenous; details: rhesus monkey, in vivo
[36] = AUC (0 to t) in Beagle dog at 1 mg/kg, iv; format: ADME, organism-based, Canis lupus familiaris; set-up: dose 1 mg/kg, route intravenous; details: plasma
[37] = AUC (0 to t) in monkey at 0.5 mg/kg, iv; format: ADME, organism-based, Macaca mulatta; set-up: dose 0.5 mg/kg, route intravenous; details: rhesus monkey, plasma
[38] = AUC (0 to infinity) in rat at 0.3 mg/kg, iv; format: ADME, organism-based; set-up: time infinity, dose 0.3 mg/kg, route intravenous; details: plasma
[39] = AUC (0 to infinity) in rat at 1 mg/kg, iv; format: ADME, organism-based; set-up: time infinity, dose 1 mg/kg, route intravenous; details: plasma
[40] = AUC (0 to infinity) in Beagle dog at 0.5 mg/kg, iv; format: ADME, organism-based, Canis lupus familiaris; set-up: time infinity, dose 0.5 mg/kg, route intravenous; details: plasma
[41] = AUC (0 to infinity) in monkey at 0.5 mg/kg, iv; format: ADME, organism-based, Macaca mulatta; set-up: time infinity, dose 0.5 mg/kg, route intravenous; details: rhesus monkey, plasma
[42] = Half life in Beagle dog at 5 mg/kg, po; format: ADME, organism-based, Canis lupus familiaris; set-up: dose 5 mg/kg, route oral; details: in vivo
[43] = AUC (0 to infinity) in rat at 3 mg/kg, po; format: ADME, organism-based; set-up: time infinity, dose 3 mg/kg, route oral; details: plasma
[44] = Cmax in rat at 3 mg/kg, po; format: ADME, organism-based; set-up: dose 3 mg/kg, route oral; details: in vivo
[45] = Cmax in rat at 30 mg/kg, po after 2.8 hrs; format: ADME, organism-based; set-up: dose 30 mg/kg, route oral; details: in vivo
[46] = Cmax in rat at 300 mg/kg, po; format: ADME, organism-based; set-up: dose 300 mg/kg, route oral; details: in vivo
[47] = Cmax in portal cannulated Beagle dog at 1 mg/kg, po; format: ADME, organism-based, Canis lupus familiaris; set-up: dose 1 mg/kg, route oral; details: in vivo
[48] = Cmax in Beagle dog at 0.5 mg/kg, po; format: ADME, organism-based, Canis lupus familiaris; set-up: dose 0.5 mg/kg, route oral; details: in vivo
[49] = Cmax in Beagle dog at 5 mg/kg, po; format: ADME, organism-based, Canis lupus familiaris; set-up: dose 5 mg/kg, route oral; details: in vivo
[50] = Tmax in rat at 3 mg/kg, po; format: ADME, organism-based; set-up: dose 3 mg/kg, route oral; details: in vivo
[51] = Tmax in rat at 30 mg/kg, po; format: ADME, organism-based; set-up: dose 30 mg/kg, route oral; details: in vivo
[52] = Bioavailability in rat at 30 mg/kg, po; format: ADME, organism-based; details: in vivo
[53] = Bioavailability in portal cannulated Beagle dog at 1 mg/kg, po; format: ADME, organism-based, Canis lupus familiaris; details: in vivo
Canis familiaris [54] = experiment: Decrease in food intake in obese Beagle dog at 0.39 mg/kg, po after 3 months; format: functional, Canis lupus familiaris; set-up: scale not given: the % may be the effect or the level left
Canis familiaris [55] = experiment: Decrease in cholesterol level in obese Beagle dog at 0.39 mg/kg, po after 3 months; format: functional, Canis lupus familiaris; set-up: scale not given: the % may be the effect or the level left
[56] = Permeability from basolateral to apical side of the Caco-2 cell membrane at 1 uM in presence of calcium; format: ADME, cell-based; details: human
Cytochrome P450 1A2 = Cytochrome P450 1A2 (Homo sapiens, UniProt P05177); experiment: Inhibition of CYP1A2; format: ADME
Sequence of Cytochrome P450 1A2 (P05177 whole entry): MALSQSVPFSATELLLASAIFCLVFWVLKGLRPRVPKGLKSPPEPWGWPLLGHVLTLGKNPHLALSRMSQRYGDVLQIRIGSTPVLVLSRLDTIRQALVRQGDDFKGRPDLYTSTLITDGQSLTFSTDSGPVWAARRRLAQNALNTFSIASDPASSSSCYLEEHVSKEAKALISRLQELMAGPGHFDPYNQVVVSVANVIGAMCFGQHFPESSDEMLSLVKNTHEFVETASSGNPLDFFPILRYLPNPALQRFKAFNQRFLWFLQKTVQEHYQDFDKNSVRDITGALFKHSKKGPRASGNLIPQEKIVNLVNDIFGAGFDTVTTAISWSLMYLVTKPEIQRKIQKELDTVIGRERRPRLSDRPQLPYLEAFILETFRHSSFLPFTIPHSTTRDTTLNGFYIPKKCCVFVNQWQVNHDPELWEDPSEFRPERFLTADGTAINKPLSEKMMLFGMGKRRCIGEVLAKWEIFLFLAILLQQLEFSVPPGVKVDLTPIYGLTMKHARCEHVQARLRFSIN

Cytochrome P450 2D6 = Cytochrome P450 2D6 (Homo sapiens, UniProt P10635); experiment: Inhibition of CYP2D6; format: ADME

CN(Cc1ccccc1)C(=O)[C@@H](NC(=O)c1cc2cc(NC(=O)c3ccccc3-c3ccc(C(F)(F)F)cc3)ccc2n1C)c1ccccc1 [DIRLOTAPIDE]
IC50 [1]: 1.5 nM
Activity [2]: inactive
Papp A→B at 1 µM [3]: 0.9 ×10⁻⁶ cm/s
Activity [4]: inactive
Activity [5]: inactive
Activity [6]: inactive
Activity [7]: inactive
Activity [8]: inactive
Activity [9]: inactive
Activity [10]: inactive
Activity [11]: inactive
Activity (Homo sapiens [12]): inactive
Activity [13]: inactive
Activity [14]: inactive
Activity [15]: inactive
Activity [16]: inactive
Activity [17]: inactive
Activity [18]: inactive
Activity [19]: Not Active
Activity (Homo sapiens [20]): inactive
CLint scaled [21]: 1090 mL/min/kg
half-life at 0.5 µM (CYP3A4): 369 min
half-life at 0.5 µM (CYP2C9): 47 min
Fu (Plasma [22]): 0.032%
Fu (Plasma [23]): 0.0088%
blood plasma ratio [24]: 0.64
blood plasma ratio [25]: 0.61
ED25 (Mus musculus): 0.16 mg/kg
clearance [26]: 92 mL/min/kg
clearance [27]: 4.7 mL/min/kg
clearance [28]: 7.6 mL/min/kg
Vd [29]: 11 L/kg
Vd [30]: 8 L/kg
Vd [31]: 2.2 L/kg
half-life [32]: 120 min
half-life [33]: 348 min
half-life [34]: 300 min
half-life [35]: 402 min
AUC(0-t) [36]: 3260 ng·h/mL
AUC(0-t) [37]: 684 ng·h/mL
AUC(0-inf) [38]: 55 ng·h/mL
AUC(0-inf) [39]: 530 ng·h/mL
AUC(0-inf) [40]: 1550 ng·h/mL
AUC(0-inf) [41]: 703 ng·h/mL
half-life [42]: 354 min
AUC(0-inf) [43]: 40.7 ng·h/mL
Cmax [44]: 4.7 ng/mL
Cmax [45]: 21 ng/mL
Cmax [46]: 27 ng/mL
Cmax [47]: 26.8 ng/mL
Cmax [48]: 31.1 ng/mL
Cmax [49]: 250 ng/mL
Tmax [50]: 2.1 h
Tmax [51]: 2.8 h
bioavailability [52]: 2.3%
bioavailability [53]: 10.6%
Activity (Canis familiaris [54]): 54%
Activity (Canis familiaris [55]): 51%
Papp B→A at 1 µM [56]: 0.4 ×10⁻⁶ cm/s
IC50 (Cytochrome P450 1A2): > 30 µM
IC50 (Cytochrome P450 2D6): > 30 µM
